Results taken from article PMC6085107 (Pain, 2018).
“Also recorded” adds a separate entry of the source.

Columns and labels:
[1] = target: His-nNOS1-299 and GST-NOS1AP400-506 (Homo sapiens, UniProt P29475); experiment: AlphaScreen nNOS-NOS1AP binding disruption; settings: 1X PBS, BSA (1mg/mL), Tween-20 (0.1%), 0–200 μM, n = 4–9
NMDA-induced cell death = settings: ref [29]; cited from earlier work
[2] = test system: paclitaxel-induced neuropathic pain; settings: administered acutely; ref [27]; cited from earlier work
[3] = test system: mechanical paw withdrawal thresholds, C57BL/6J mice; experiment: Paclitaxel-induced mechanical allodynia; type: in vivo; settings: paclitaxel 4 mg/kg i.p. on day 0, 2, 4, 6; starting on day 7 and ongoing on day 15; p < 0.0001
[4] = test system: cold response times, C57BL/6J mice; experiment: Paclitaxel-induced cold allodynia; type: in vivo
[5] = test system: p53 phosphorylated at Ser15; experiment: Western blot pSer15-p53 in lumbar spinal cord; type: in vivo, mouse; settings: paclitaxel 4 mg/kg i.p. on day 0, 2, 4, 6, n = 5, p = 0.002
ERK1/2 = experiment: Western blot pERK1/2 in lumbar spinal cord; type: in vivo, mouse; settings: n = 5
p38 MAPK = settings: rats, cited from earlier work; for p38 MAPK activation in microglia: 5 minutes post treatment, returned to basal levels after 20 minutes, ref [46]
[6] = test system: mechanical paw withdrawal thresholds, C57BL/6J mice; experiment: PSNL-induced mechanical allodynia; type: in vivo
[7] = test system: cold response times, C57BL/6J mice; experiment: PSNL-induced cold allodynia; type: in vivo
primary cortical neurons = experiment: Glutamate/glycine-induced cell death in primary cortical neurons; type: cell-based, Sprague-Dawley rat; settings: MK-801 20 μM; n = 3–4; p < 0.01 for each comparison
His-nNOS_(1-299) = His-nNOS_(1-299) (UniProt P29476-1 1-299); experiment: AlphaScreen or HTRF
nNOS = settings: ref [6], [29]; cited from earlier work
[8] = test system: NR1 and NR2B; astrocytes and microglia in the lumbar spinal cord; settings: direct intrathecal injections; ref [2]; cited from earlier work

Sequence of His-nNOS1-299 and GST-NOS1AP400-506 (P29475 1-299): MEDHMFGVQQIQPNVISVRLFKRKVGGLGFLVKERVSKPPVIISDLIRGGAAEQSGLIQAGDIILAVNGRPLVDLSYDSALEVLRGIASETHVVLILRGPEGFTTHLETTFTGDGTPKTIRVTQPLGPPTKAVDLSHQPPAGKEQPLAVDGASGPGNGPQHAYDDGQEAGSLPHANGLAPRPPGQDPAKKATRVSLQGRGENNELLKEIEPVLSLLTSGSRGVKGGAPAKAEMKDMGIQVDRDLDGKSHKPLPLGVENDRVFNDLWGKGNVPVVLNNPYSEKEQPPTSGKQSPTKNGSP
Sequence of His-nNOS_(1-299) (P29476 1-299): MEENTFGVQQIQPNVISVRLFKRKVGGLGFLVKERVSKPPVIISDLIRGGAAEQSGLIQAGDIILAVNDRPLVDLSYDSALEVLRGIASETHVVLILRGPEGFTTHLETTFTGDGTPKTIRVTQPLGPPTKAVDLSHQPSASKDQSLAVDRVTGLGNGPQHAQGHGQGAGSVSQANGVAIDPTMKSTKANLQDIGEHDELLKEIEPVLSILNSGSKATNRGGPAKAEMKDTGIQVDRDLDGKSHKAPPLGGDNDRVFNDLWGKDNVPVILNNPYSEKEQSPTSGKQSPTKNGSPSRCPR

For GRKKRRQRRRGESVYAGQW [TAT-cp4GESV], the “disruption of nNOS-NOS1AP binding” value [1] is listed as “Neither TAT-cp4GESV nor TAT-GESVΔ1 disrupted the interactions; also recorded: Neither TAT-GESVΔ1 nor TAT-cp4GESV disrupted the binding” and the NMDA-induced cell death (NMDA-induced cell death) is listed as “did not disrupt NMDA activation-induced cell death”.

For `O=C(O)c1ccc(NCc2cc(Cl)cc(Cl)c2O)cc1O` [ZL006], the “suppression of paclitaxel-induced neuropathic pain” value [2] is given as “efficacious in suppressing paclitaxel-induced neuropathic pain”.

For `CC(=O)O[C@H]1C(=O)[C@@]2(C)[C@H]([C@H](OC(=O)c3ccccc3)[C@]3(O)C[C@H](OC(=O)[C@H](O)[C@@H](NC(=O)c4ccccc4)c4ccccc4)C(C)=C1C3(C)C)[C@]1(OC(C)=O)CO[C@@H]1C[C@@H]2O` [Paclitaxel], the “mechanical paw withdrawal thresholds after paclitaxel vs vehicle” value [3] was “lowered mechanical paw withdrawal thresholds”, the “cold response times after paclitaxel vs vehicle” value ([4]; paclitaxel 4 mg/kg i.p. on day 0, 2, 4, 6, starting on day 7 and ongoing on day 15, p < 0.0001) was “increased cold response times” and the “pSer15-p53 levels, paclitaxel-treated vs vehicle-treated mice” value [5] was “increased lumbar spinal cord levels of pSer15-p53”. The “pERK1/2 levels, paclitaxel-treated vs cremophor-vehicle treated mice” value (ERK1/2; paclitaxel 4 mg/kg i.p. on day 0, 2, 4, 6, lumbar spinal cord, saline i.t., p < 0.0001) was “elevated pERK1/2 levels”.

For `CN[C@H](CC(=O)O)C(=O)O` [NMDA, N-methyl-D-aspartate], the “spinal p38 MAPK activation” value (p38 MAPK; administration directly to the spinal cord, ref [45]) is listed as “induced p38 MAPK activation”.

For substance P, the “p38 MAPK activation in microglia” value (p38 MAPK) is listed as “induced p38 MAPK activation in microglia 5 minutes post treatment”.

In the case of formalin, the “p38 MAPK activation in microglia” value (p38 MAPK) is given as “induced p38 MAPK activation in microglia 5 minutes post treatment”.

With GRKKRRQRRRYAGQWGES [TAT-GESVΔ1] the “disruption of nNOS-NOS1AP binding” value [1] was “Neither TAT-cp4GESV nor TAT-GESVΔ1 disrupted the interactions; also recorded: Neither TAT-GESVΔ1 nor TAT-cp4GESV disrupted the binding”, the “cold response times vs saline (i.t.) in paclitaxel-treated mice” value ([4]; 10 nmol i.t., n = 6, TAT-GESV p = 0.039, TAT-GESVΔ1 p = 1) was “did not differ from saline” and the “ipsilateral paw withdrawal thresholds vs saline, PSNL” value ([6]; 10 nmol i.t., acute, n = 6–10, TAT-GESV p < 0.05, TAT-GESVΔ1 p = 1) was “did not differ”. For the same molecule, the “cold responsiveness, repeated dosing, PSNL” value ([7]; 10 nmol i.t. once daily, 8 consecutive days, n = 5–10, TAT-GESV vs saline p < 0.05, TAT-GESVΔ1 p > 0.25 for each comparison) was “did not reliably alter cold responsiveness relative to saline (i.t.), MK-801 (i.t.) or TAT-GESV (i.t.)”, the “ipsilateral cold-response times vs saline, PSNL” value ([7]; 10 nmol i.t., acute, n = 6–10, TAT-GESV p < 0.01, TAT-GESVΔ1 p = 1) was “did not differ” and the “contralateral cold responsiveness, PSNL or sham” value ([7]; acute i.t., p = 0.39 (dose), p = 0.491 (drug), p = 0.882 (interaction)) was “neither TAT-GESV nor TAT-GESVΔ1 altered mechanical or cold responsiveness in the paw contralateral to PSNL or sham surgery”. The “pERK1/2 elevation vs saline (i.t.), paclitaxel-treated mice” value (ERK1/2; 5 nmol i.t., 20 min post injection, p > 0.4) was “neither TAT-GESV nor TAT-GESVΔ1 (5 nmol, i.t.) altered pERK1/2 elevation”.

For `Oc1c(Cl)cc(Cl)cc1CNc1ccc2n[nH]nc2c1` [IC87201], the “NMDAR-evoked nNOS-NOS1AP association/p38 MAPK-dependent cell death” value (NMDA-induced cell death) is given as “blocked” and the “suppression of paclitaxel-induced neuropathic pain” value [2] is given as “efficacious in suppressing paclitaxel-induced neuropathic pain”.

In the case of GRKKRRQRRR [TAT], the “disruption of nNOS-NOS1AP binding” value [1] is reported as “did not interfere with the binding between His-nNOS1-299 and GST-NOS1AP400-506”.

For `C[C@]12N[C@H](Cc3ccccc31)c1ccccc12` [MK-801], the “cell death vs all other groups exposed to glutamate/glycine” value (primary cortical neurons) was “Cell death was lower”, the “sustained mechanical efficacy, day 4–8, repeated dosing, PSNL” value ([6]; MK-801 5 nmol i.t. once daily, p < 0.001 for each comparison) was “similarly increased mechanical paw withdrawal thresholds relative to saline (i.t.) or TAT-GESVΔ1 (i.t.) with sustained efficacy” and the “cold sensitivity vs saline, repeated dosing, PSNL” value ([7]; MK-801 5 nmol i.t. once daily, 8 consecutive days, n = 5–10, p = 0.072) was “approached significance”.

For GRKKRRQRRRYAGQWGESV [L-TAT-GESV], the IC50 (His-nNOS_(1-299)) was 8.47 µM.

B1: nNOS1-99: nNOS fragment disrupting nNOS-NOS1AP interactions (protein, UniProt P29475 1-99, looked up, fragment)
chain: MEDHMFGVQQIQPNVISVRLFKRKVGGLGFLVKERVSKPPVIISDLIRGGAAEQSGLIQAGDIILAVNGRPLVDLSYDSALEVLRGIASETHVVLILRG
In the case of B1, the “enzymatic activity of nNOS or production of NO” value (nNOS) is given as “does not alter the enzymatic activity of nNOS or the production of NO”.

B2: CCL-1: chemokines C-C motif ligand 1 (protein, UniProt P22362 24-96, looked up)
C-C motif chemokine 1: KSMQVPFSRCCFSFAEQEIPLRAILCYRNTSSICSNEGLIFKLKRGKEACALDTVGWVQRHRKMLRHCPSKRK
In the case of B2, the “NR1 and NR2B phosphorylation, glial activation in lumbar spinal cord” value [8] is given as “induced phosphorylation of NR1 and NR2B and activated astrocytes and microglia in the lumbar spinal cord”.
